According to article PMC7795340, “First Synthesis of Racemic Trans Propargylamino-Donepezil, a Pleiotrope Agent Able to Both Inhibit AChE and MAO-B, with Potential Interest against Alzheimer’s Disease” (Molecules, 2020):
Several values for one entry are separate records, joined by “and”; a condition that tells them apart may be missing. Equal entries are not always repeated. Where two headings read alike, the source gives them in different places.

Legend:
[1] = target: (eq)BuChE (BuChE from equine serum) (Equus caballus, UniProt P81908); assay: (eq)BuChE inhibition, Ellman test; format: biochemical; conditions: for inhibition at 1 µM: read-out: (eq)BuChE % Inhibition at 10^−6 M
Protocol: . DPZ was used as a reference.
Inhibitory capacity of compounds on AChE biological activity was evaluated using the spectrometric method of Ellman. Acetyl- or butyrylthiocholine iodide and 5,5-dithiobis-(2-nitrobenzoic) acid (DTNB) were purchased from Sigma Aldrich. Lyophilized BuChE from equine serum (Sigma Aldrich) was dissolved in 0.2 M phosphate buffer pH 7.4 such as to have enzyme solutions stock with 2.5 units/mL enzyme activity. AChE from human erythrocytes (buffered aqueous solution, ≥500 units/mg protein (BCA), Sigma Aldrich) was diluted in 20 mM HEPES buffer pH 8, 0.1% Triton X-100 such as to have enzyme solution with 0.25 unit/mL enzyme activity. In the procedure, 100 μL of 0.3 mM DTNB dissolved in phosphate buffer pH 7.4 was added to the 96 wells plate followed by 50 μL of test compound solution and 50 μL of enzyme (0.05 U final). After 5 min of preincubation at 25 °C, the reaction was then initiated by the injection of 50 μL of 10 mM acetyl- or butyrylthiocholine iodide solution. The hydrolysis of acetyl- or butyrylthiocholine was monitored by the formation of yellow 5-thio-2-nitrobenzoate anion as the result of the reaction of DTNB with thiocholine, released by the enzymatic hydrolysis of acetyl- or butyrylthiocholine, at a wavelength of 412 nm using a 96-well microplate plate reader (TECAN Infinite M200, Lyon, France). […]. The rate of absorbance increase at 412 nm was followed every minute for 10 min. Assays were performed in simplicate during three independent tests, with a blank containing all components except acetyl- or butyrylthiocholine, in order to account for non-enzymatic reaction. The reaction slopes were compared, and the percent inhibition due to the presence of test compounds was calculated by the following expression: 100 − (vi/v0 × 100) where vi is the rate calculated in the presence of inhibitor and v0 is the enzyme activity.
First screening of AChE and BuChE activity was carried out at a 10^−6 or 10^−5 M concentration of compounds under study. […]

human recombinant MAO-A = target: T1, human recombinant MAO-A (Homo sapiens, UniProt P21397); assay: (h)MAO-A inhibition, kynuramine fluorescence assay; format: biochemical; conditions: 10^−5 M; kynuramine 50 µM
T1 construct: purchased Sigma Aldrich; host or cells: baculovirus infected insect cells (microsomes)
T1 sequence (P21397 1-527): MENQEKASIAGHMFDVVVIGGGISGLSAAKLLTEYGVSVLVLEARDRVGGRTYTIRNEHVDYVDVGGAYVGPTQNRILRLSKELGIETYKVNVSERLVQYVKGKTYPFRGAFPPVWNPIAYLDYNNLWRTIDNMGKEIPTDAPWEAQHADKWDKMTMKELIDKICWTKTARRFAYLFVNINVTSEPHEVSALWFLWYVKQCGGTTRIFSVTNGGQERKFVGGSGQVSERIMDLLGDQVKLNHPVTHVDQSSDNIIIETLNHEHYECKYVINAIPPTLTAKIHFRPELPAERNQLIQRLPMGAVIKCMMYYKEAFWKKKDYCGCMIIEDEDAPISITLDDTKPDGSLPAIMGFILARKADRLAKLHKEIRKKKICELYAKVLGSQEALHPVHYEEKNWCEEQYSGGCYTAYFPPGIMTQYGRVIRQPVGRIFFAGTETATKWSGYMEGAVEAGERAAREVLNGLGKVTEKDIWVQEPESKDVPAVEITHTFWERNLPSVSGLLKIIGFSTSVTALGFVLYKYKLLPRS
Protocol: (§1) Inhibition of human recombinant monoamine oxidases A (250 U/mg) and B (59 U/mg; microsomes from baculovirus infected insect cells; Sigma Aldrich) was determined as already described, measuring the fluorescence of 4-hydroxyquinoline (exc. 310 nm; em. 400 nm) produced by MAOs in the oxidative deamination of substrate kynuramine. […] Assays were performed in triplicate during three independent tests, in 96-well black polystyrene plates (Greiner Bio-One, Kremsmünster, Austria) using an Infinite M1000 Pro plate reader (Tecan, Cernusco s.N., Italy).

[2] = target: (h)AChE (AChE from human erythrocytes) (Homo sapiens, UniProt P22303); assay: biochemical; conditions: for inhibition at 1 µM: read-out: (h)AChE % Inhibition at 10^−6 M
Protocol: DPZ was used as a reference.
Inhibitory capacity of compounds on AChE biological activity was evaluated using the spectrometric method of Ellman. Acetyl- or butyrylthiocholine iodide and 5,5-dithiobis-(2-nitrobenzoic) acid (DTNB) were purchased from Sigma Aldrich. Lyophilized BuChE from equine serum (Sigma Aldrich) was dissolved in 0.2 M phosphate buffer pH 7.4 such as to have enzyme solutions stock with 2.5 units/mL enzyme activity. AChE from human erythrocytes (buffered aqueous solution, ≥500 units/mg protein (BCA), Sigma Aldrich) was diluted in 20 mM HEPES buffer pH 8, 0.1% Triton X-100 such as to have enzyme solution with 0.25 unit/mL enzyme activity. In the procedure, 100 μL of 0.3 mM DTNB dissolved in phosphate buffer pH 7.4 was added to the 96 wells plate followed by 50 μL of test compound solution and 50 μL of enzyme (0.05 U final). After 5 min of preincubation at 25 °C, the reaction was then initiated by the injection of 50 μL of 10 mM acetyl- or butyrylthiocholine iodide solution. […] Assays were performed in simplicate during three independent tests, with a blank containing all components except acetyl- or butyrylthiocholine, in order to account for non-enzymatic reaction. The reaction slopes were compared, and the percent inhibition due to the presence of test compounds was calculated by the following expression: 100 − (vi/v0 × 100) where vi is the rate calculated in the presence of inhibitor and v0 is the enzyme activity.

human recombinant MAO-B = target: T2, human recombinant MAO-B (Homo sapiens, UniProt P27338); assay: (h)MAO-B inhibition, kynuramine fluorescence assay; format: biochemical; conditions: kynuramine 50 µM; for inhibition at 10 µM: 10^−5 M; for IC50: (h)MAO-B IC50 (µM) (n = 3), mean ± SEM, n = 3
T2 construct: purchased Sigma Aldrich; host or cells: baculovirus infected insect cells (microsomes)
T2 sequence (P27338 1-520): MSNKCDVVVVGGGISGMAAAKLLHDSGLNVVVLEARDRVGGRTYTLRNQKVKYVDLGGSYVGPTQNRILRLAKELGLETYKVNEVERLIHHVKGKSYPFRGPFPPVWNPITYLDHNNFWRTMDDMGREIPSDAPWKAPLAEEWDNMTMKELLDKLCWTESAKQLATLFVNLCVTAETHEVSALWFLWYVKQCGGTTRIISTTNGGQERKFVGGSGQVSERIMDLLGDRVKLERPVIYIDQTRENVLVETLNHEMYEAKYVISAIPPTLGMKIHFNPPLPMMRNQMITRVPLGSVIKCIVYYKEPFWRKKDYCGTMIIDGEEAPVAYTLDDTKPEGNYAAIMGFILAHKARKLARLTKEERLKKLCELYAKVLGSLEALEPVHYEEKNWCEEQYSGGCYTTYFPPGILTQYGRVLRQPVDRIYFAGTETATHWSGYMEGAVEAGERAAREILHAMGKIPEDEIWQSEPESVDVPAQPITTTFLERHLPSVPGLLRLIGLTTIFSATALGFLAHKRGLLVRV
Protocol: as §1

Sequence of (eq)BuChE (BuChE from equine serum) (P81908 whole entry): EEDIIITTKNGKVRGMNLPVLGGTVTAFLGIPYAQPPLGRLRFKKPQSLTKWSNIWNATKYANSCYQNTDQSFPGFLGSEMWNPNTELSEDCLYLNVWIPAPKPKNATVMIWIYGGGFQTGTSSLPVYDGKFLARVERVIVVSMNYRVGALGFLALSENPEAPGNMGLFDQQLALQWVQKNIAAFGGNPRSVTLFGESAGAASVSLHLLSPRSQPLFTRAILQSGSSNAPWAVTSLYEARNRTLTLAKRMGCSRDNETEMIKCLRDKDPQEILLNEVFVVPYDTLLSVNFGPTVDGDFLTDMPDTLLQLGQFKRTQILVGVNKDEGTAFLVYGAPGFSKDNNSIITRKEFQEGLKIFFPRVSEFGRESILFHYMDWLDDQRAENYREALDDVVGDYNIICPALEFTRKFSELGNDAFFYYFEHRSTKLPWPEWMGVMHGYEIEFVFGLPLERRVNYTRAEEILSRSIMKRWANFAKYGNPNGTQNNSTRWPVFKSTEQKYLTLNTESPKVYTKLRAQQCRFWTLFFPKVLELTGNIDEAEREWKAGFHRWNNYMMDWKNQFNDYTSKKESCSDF
Sequence of (h)AChE (AChE from human erythrocytes) (P22303 other isoform, or with tags, fused parts or gaps): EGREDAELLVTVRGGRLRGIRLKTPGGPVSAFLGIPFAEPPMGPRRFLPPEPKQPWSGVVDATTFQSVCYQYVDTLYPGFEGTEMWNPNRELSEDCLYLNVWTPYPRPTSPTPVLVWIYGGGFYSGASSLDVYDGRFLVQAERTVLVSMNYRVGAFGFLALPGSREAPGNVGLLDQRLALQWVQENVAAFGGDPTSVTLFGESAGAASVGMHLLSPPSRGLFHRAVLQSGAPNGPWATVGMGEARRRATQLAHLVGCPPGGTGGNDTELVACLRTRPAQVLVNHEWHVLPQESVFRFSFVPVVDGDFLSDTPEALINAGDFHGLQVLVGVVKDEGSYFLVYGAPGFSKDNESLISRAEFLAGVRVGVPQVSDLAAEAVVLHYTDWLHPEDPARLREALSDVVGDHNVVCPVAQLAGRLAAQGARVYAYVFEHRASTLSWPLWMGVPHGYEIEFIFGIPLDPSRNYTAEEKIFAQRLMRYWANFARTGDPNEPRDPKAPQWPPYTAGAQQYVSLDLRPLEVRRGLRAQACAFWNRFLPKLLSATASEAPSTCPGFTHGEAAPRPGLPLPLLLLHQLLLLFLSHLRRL

| SMILES | IC50 ([1]; (eq)BuChE IC50 (µM) (n = 3), mean ± SEM, n = 3) | inhibition at 1 µM [1] | inhibition at 10 µM (human recombinant MAO-A) | IC50 ([2]; (h)AChE IC50 (µM) (n = 3), mean ± SEM, n = 3) | relative selectivity: BuChE inhibited at a concentration fold greater than AChE ([2]; BuChE IC50 vs (h)AChE IC50) | inhibition at 1 µM [2] | IC50 ([2]; value in nM, read-out: (h)AChE IC50) | inhibition at 10 µM (human recombinant MAO-B) | IC50 (human recombinant MAO-B) |
| --- | --- | --- | --- | --- | --- | --- | --- | --- | --- |
| C#CCN[C@@H]1c2cc(OC)c(OC)cc2C(=O)[C@H]1CC1CCN(Cc2ccccc2)CC1 (relative stereo) [Trans-PADPZ (19), Trans 2-[(1-Benzyl-4-piperidyl)methyl]-5,6-dimethoxy-3-(prop-2-ynylamino)indan-1-one] | 4.23 ± 0.375 µM | 74% | 13% | 0.4 µM and 0.442 µM | 10 fold | 71% | 0.44 µM | 52% | 6.4 µM and 6.43 µM |
| C#CCNC1CC(=O)c2cc(OC)c(OC)cc21 (centres unmarked) [Compound 5, 5,6-Dimethoxy-3-(prop-2-ynylamino)indan-1-one] |  |  | < 10% |  |  |  |  | 45% | 13.4 ± 3.4 µM |
| COc1cc2c(cc1OC)C(NC(C)=O)C(CC1CCN(Cc3ccccc3)CC1)C2=O (centres unmarked) [Compound 16] |  | 39% |  |  |  | 4% |  |  |  |
